Read-outs that look alike come from different tables or passages of the source. Non-standard residues stand in square brackets, D forms with d. Residues, ends and D or L forms follow the SMILES beside them. *: point of attachment. dPhe(4-Cl) = N[C@H](Cc1ccc(Cl)cc1)C(=O)O; Ahp = NCCCCCCC(=O)O; Bn = c1ccc(C*)cc1

Assay [1] addresses T1, MC1-R (Mus musculus, UniProt Q01727).
T1 construct: B-16 mouse melanoma cells (containing MC1-R); endogenous in cells
In words: cAMP functional activity assay in B-16 mouse melanoma cells. It counts as cell-based. Particulars: 1 μM concentration where stated. How it is done: (§1) General method for EC50 determination in functional activity assay. […] Data analysis and EC50 values were determined using nonlinear regression analysis with Prism Graph-Pad software.
(§2) Functional status. The agonist/antagonist status with respect to MC1-R, MC-3R, MC4-R and MC5-R of certain compounds of the invention was determined. Antagonistic activity was determined by measuring the inhibition of α-MSH-induced or NDP-α-MSH-induced cAMP levels following exposure to graded doses of compounds as in the preceding descriptions.

Assay [2] deals with T1, MC1-R. Kind of assay: Competitive inhibition assay using [I^125]-NDP-α-MSH, B-16 mouse melanoma cell membranes. In kind it is binding. Particulars: for Ki: read-out: Ki (nM) (NDP-α-MSH) In Normal System, MC1-R; for inhibition at 1 µM: 1 μM test compound, read-out: Inhibition at 1 μM (NDP-α-MSH) In Normal System, MC1-R. The procedure, abridged: (§3)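 Tracer was 0.4 nM for MC3-R and MC5-R, 0.2 nM for MC4-R and 0.1 nM for MC1-R. Bound radioactivity was gamma-counted after filtration; values are triplicate means, with results below 0% reported as 0%.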

The target of assay [3] is T2, MC4-R (Homo sapiens, UniProt P32245). In words: cAMP agonist stimulation, low receptor density system (0.1 ng/mL doxycycline). As to conditions: 0.1 ng/mL doxycycline, low receptor density hMC4-R system; NDP-α-MSH maximal cAMP = 1.0.
Assay [4] has as its target T3, MC5-R (Homo sapiens, UniProt P33032). In words: cAMP functional activity assay in HEK-293 cells. In kind it is cell-based. On the set-up: expressed in transfected cells; host or cells: HEK-293. As to conditions: 1 μM concentration where stated. How it is done: as §1, §2
The target in assay [5] is T2, MC4-R. Kind of assay: cAMP agonist stimulation, high receptor density system (10 ng/mL doxycycline). Particulars: for Efficacy/Intrinsic Activity: NDP-α-MSH maximal cAMP = 1.0.
For assay [6], the target named is T2, MC4-R. In words: Competitive inhibition assay using [I^125]-NDP-α-MSH, hMC4-R membranes. Particulars: for inhibition at 1 µM: 1 μM test compound, read-out: Inhibition at 1 μM (NDP-α-MSH) In Normal System, MC4-R. In kind it is binding. The arrangement: host or cells: TREx-293 (HEK-293 stably expressing Tet repressor). The essentials: as §3
The target of assay [7] is MC3-R (Homo sapiens, UniProt P41968). Kind of assay: Competitive inhibition assay using [I^125]-NDP-α-MSH, hMC3-R membranes. In kind it is binding. The arrangement: expressed in transfected cells. As to conditions: for inhibition at 1 µM: 1 μM test compound, read-out: Inhibition at 1 μM (NDP-α-MSH) In Normal System, MC3-R. The procedure, abridged: as §3
Assay [8] deals with T2, MC4-R. Kind of assay: cAMP functional activity assay in HEK-293 cells, normal system. It counts as cell-based. The arrangement: expressed in transfected cells; host or cells: HEK-293. As to conditions: for functional status at MC4-R in cAMP assay: normal system, 1 μM concentration where stated; for intrinsic activity at MC4-R in a normal system: normal receptor density system, NDP-α-MSH = 1.0.

The target in assay [9] is T3, MC5-R. Kind of assay: Competitive inhibition assay using [I^125]-NDP-α-MSH, hMC5-R membranes. It counts as binding. On the set-up: expressed in transfected cells. As to conditions: for inhibition at 1 µM: 1 μM test compound, read-out: Inhibition at 1 μM (NDP-α-MSH) In Normal System, MC5-R. The procedure, abridged: as §3
A short description of assay [10]: IV and IP food intake and body weight change, rats. Particulars: rat, IV, dose not stated; for decrease in body weight: 24 hours. It counts as in vivo. On the procedure:
IV and IP food intake and body weight change. Change in food intake and body weight was evaluated for selected compounds. Male Sprague-Dawley rats or male C57BL/6 mice were utilized. Animals were individually housed in conventional plexiglass hanging cages and maintained on a controlled 12 hour on/off light cycle. Water and powdered (LabDiet, 5P00 Prolab RMH 3000) or pelleted (Harlan Teklad 2018 18% Protein Rodent Diet) food was provided ad libitum. For 1 week before treatment, 24-hour food intake and body weight change was recorded to assess a baseline for the group during vehicle treatment. The rats were dosed IV with vehicle or selected compounds (0.5-3 mg/kg, and in some cases up to 10 mg/Kg) or dosed intraperitoneally (IP) with vehicle or selected compounds (0.5-10 mg/kg, and in some cases up to 50 mg/kg). Mice were dosed IP. The changes in body weight and food intake for the 24 hour period after dosing were determined. The changes in body weight and food intake for the 48 hour and 72 hour periods after dosing were also measured to determined reversal of changes in body weight and food intake effects back to baseline levels.

Assay [11] is described as follows: ICV food intake and body weight change. It counts as in vivo. Particulars: rat, 1 nmol, 24 hours. The procedure, abridged: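 Rats fitted with intracerebroventricular cannulas and fed ad libitum got a single ICV dose of vehicle or compound (1-3 nmol). Food intake and body-weight change over the 24 h after dosing were compared with a 1-week vehicle baseline. Values at 48 h and 72 h were also recorded to follow return to baseline.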

Assay [12] can be described thus: Penile erection induction in male rats. In kind it is in vivo. Particulars: rat, IV. The essentials:
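Male Sprague-Dawley rats (200-250 g), groups of 4-8, dosed IV or ICV at various doses and observed individually for penile erections. Only statistically relevant increases over vehicle-control mean PEs count as induction; IV responses below 1.0 PEs/rat treated as equivocal, some retested ICV.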

[13] abbreviates: 10 ng/mL doxycycline, high receptor density hMC4-R system.

T1 sequence (Q01727 whole entry): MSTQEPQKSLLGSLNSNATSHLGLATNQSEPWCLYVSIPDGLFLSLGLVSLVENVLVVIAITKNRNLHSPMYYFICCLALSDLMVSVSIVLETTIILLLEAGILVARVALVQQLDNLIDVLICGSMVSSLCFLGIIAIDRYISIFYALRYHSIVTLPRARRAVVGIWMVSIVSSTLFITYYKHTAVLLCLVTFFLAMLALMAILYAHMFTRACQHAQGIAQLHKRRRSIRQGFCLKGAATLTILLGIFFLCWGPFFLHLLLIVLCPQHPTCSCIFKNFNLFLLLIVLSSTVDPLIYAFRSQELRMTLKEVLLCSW
T3 sequence (P33032 whole entry): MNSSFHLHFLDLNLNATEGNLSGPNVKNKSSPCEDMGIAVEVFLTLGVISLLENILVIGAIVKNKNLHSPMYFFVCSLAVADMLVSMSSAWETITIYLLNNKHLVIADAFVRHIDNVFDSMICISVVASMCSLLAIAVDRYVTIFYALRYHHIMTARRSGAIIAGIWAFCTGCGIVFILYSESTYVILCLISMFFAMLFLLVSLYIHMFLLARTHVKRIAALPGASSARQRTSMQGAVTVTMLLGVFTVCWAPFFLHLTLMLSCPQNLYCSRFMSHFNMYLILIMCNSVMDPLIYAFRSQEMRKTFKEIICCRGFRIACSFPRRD
T2 sequence (P32245 whole entry): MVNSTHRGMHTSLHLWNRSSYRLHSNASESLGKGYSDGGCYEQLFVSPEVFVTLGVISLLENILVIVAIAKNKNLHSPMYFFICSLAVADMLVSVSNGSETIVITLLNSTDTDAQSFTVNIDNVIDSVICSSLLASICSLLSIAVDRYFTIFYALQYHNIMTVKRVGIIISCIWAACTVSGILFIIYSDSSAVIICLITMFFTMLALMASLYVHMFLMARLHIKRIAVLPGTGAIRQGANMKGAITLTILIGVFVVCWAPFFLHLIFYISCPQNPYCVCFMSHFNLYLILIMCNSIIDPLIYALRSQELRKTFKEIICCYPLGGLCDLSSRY
Chain of MC3-R (P41968 whole entry): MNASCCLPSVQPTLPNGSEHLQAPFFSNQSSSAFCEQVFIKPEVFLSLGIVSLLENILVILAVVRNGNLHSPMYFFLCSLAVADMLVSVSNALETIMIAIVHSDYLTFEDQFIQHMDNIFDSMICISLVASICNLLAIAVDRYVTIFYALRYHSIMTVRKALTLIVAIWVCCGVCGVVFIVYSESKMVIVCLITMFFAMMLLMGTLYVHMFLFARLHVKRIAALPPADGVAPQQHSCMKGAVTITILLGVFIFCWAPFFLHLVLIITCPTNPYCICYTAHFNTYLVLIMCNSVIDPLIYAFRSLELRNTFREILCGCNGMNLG

For “N-{3-[1-[2(R)-Amino-3-(4-chloro-2-fluoro-phenyl)-propionyl]-5(S)-methyl-4-(2-naphthalen-2-yl-ethyl)-piperazin-2(S)-yl]-propyl}-guanidine [Example 3]”, in [1], the “functional status at MC1-R in cAMP assay” value was “partial agonist (intrinsic activity between 0.1 (10%) and 0.7 (70%) is classified as a partial agonist)”. For the same compound, the Ki was found to be 109 nM in [2]; 6 nM in assay [6] (read-out: Ki (nM) (NDP-α-MSH) In Normal System, MC4-R); 186 nM in assay [7] (read-out: Ki (nM) (NDP-α-MSH) In Normal System, MC3-R); 204 nM in assay [9] (read-out: Ki (nM) (NDP-α-MSH) In Normal System, MC5-R). In addition, the “Efficacy/Intrinsic Activity” value in assay [3] is “None”; in [5] (setting [13]), 0.26. Also, in assay [4], the “functional status at MC5-R in cAMP assay” value is “no intrinsic activity (intrinsic activity below 0.1 (10%) is classified as inactive or having no intrinsic activity)”. The compound further had an EC50 in assay [5] (setting [13]) of 61 nM. In assay [8], the “functional status at MC4-R in cAMP assay” value is “no intrinsic activity (intrinsic activity below 0.1 (10%) is classified as inactive or having no intrinsic activity)”.
Take `N=C(N)NCCC[C@H]1C(=O)N2C(CC[C@@H]2COc2ccc3ccccc3c2)N1C(=O)[C@@H](Cc1ccc(Cl)cc1Cl)NC(=O)[C@@H]1CC[C@H](c2ccccc2)N1` (stereo partly drawn) [Example 19, (2S,5R)-5-Phenyl-pyrrolidine-2-carboxylic acid {(R)-1-(2,4-dichloro-benzyl)-2-[(2S,5R)-2-(3-guanidino-propyl)-5-(naphthalen-2-yloxymethyl)-3-oxo-hexahydro-pyrrolo[1,2-a]imidazol-1-yl]-2-oxo-ethyl}-amide]: the inhibition at 1 µM was determined as 16% in [2], 97% in [6], 43% in assay [7] and 86% in assay [9]. For the same compound, the Ki in assay [2] was found to be 1040 nM. Also, the “Efficacy/Intrinsic Activity” value is listed as “None” in [3] and 0.22 in [5] (setting [13]). In [10], the “24 hour decrease in food intake” value was found to be 1%. The “decrease in body weight” value in assay [10] came out at 2%; in assay [11], 3%. Besides, the EC50 in assay [5] was 173 nM. Besides, the “decrease in food intake” value in assay [11] was determined as 38%. The “functional status at MC4-R in cAMP assay” value in assay [8] was “no intrinsic activity (intrinsic activity below 0.1 (10%) is classified as inactive or having no intrinsic activity)”. Moreover, the “Penile Erection IV” value in assay [12] is recorded as “No”. The penile erection response result in [12] (1 μg/kg) was “no penile erection response”.
With `N=C(N)NCCC[C@H]1C(=O)N(CCc2c[nH]c3ccccc23)CCN1C(=O)[C@H](N)Cc1ccc(Cl)cc1Cl` [Example 2, N-(3-{(S)-1-[(R)-2-Amino-3-(2,4-dichloro-phenyl)-propionyl]-4-[2-(1H-indol-3-yl)-ethyl]-3-oxo-piperazin-2-yl}-propyl)-guanidine], the “functional status at MC1-R in cAMP assay” value in assay [1] is “partial agonist (intrinsic activity between 0.1 (10%) and 0.7 (70%) is classified as a partial agonist)”. The inhibition at 1 µM in assay [2] was 7%; in assay [6] it was 96%; in assay [7], 57%; in assay [9], 35%. For the same compound, the Ki in assay [2] amounted to 1410 nM. Also, the “Efficacy/Intrinsic Activity” value was “None” in [3] and 0.56 in [5] (setting [13]). Further, in [4], the “functional status at MC5-R in cAMP assay” value was “partial agonist (intrinsic activity between 0.1 (10%) and 0.7 (70%) is classified as a partial agonist)”. The same compound showed an EC50 in assay [5] of 57 nM. Besides, the “intrinsic activity at MC4-R in a normal system” value (“intrinsic activity at MC4-R” for short) in assay [8] turned out to be 0.3. For the same compound, the “functional status at MC4-R in cAMP assay” value in [8] is “partial agonist (intrinsic activity between 0.1 (10%) and 0.7 (70%) is classified as a partial agonist)”. The “Penile Erection IV” value in assay [12] was “No”. The penile erection response entry in assay [12] (0.3 to 3 μg/kg) is on record as “did not cause penile erection behavior”.
`N=C(N)NCCC[C@H](NC(=O)[C@@H](Cc1ccc(Cl)cc1)NC(=O)[C@H](COCc1ccccc1)NC(=O)CCCCCCN)C(=O)N[C@@H](Cc1c[nH]c2ccccc12)C(=O)N[C@@H](CC(=O)O)C(=O)N[C@@H](Cc1ccccc1)C(N)=O` [Example 14, NH2—(CH2)6—C(═O)-Ser(Bzl)-D-Phe(4-Cl)-Arg-Trp-Asp-Phe-NH2] (H-[Ahp]S(Bn)[dPhe(4-Cl)]RWDF-NH2): the inhibition at 1 µM in assay [2] worked out at 38%; in assay [6] it was 99%; in [7], 66%; in assay [9] it was 52%. The results for the “Efficacy/Intrinsic Activity” value in assay [3] and in assay [5] (setting [13]) were “None” and 0.64, respectively. Further, in [10], the “24 hour decrease in food intake” value was 30%. Also, the figures for the “decrease in body weight” value in assay [10] and in assay [11] were 2% and −2%, respectively. In addition, the EC50 in assay [5] came to 141 nM. Moreover, the “decrease in food intake” value in [11] is given as 50%. Moreover, in assay [8], the “intrinsic activity at MC4-R” value is given as 0.5. Also, in assay [8], the “functional status at MC4-R in cAMP assay” value is “partial agonist (intrinsic activity between 0.1 (10%) and 0.7 (70%) is classified as a partial agonist)”. Also, the “Penile Erection IV” value in [12] was “No”. Besides, the penile erection response result in assay [12] is “no penile erection response”.
For `C[C@H](NC(=O)[C@H](Cc1c[nH]c2ccccc12)NC(=O)[C@H](CCCNC(=N)N)NC(=O)[C@@H](Cc1ccc(Cl)cc1)NC(=O)[C@H](COCc1ccccc1)NC(=O)CCCCCCN)C(N)=O` [Example 15, NH2—(CH2)6—C(═O)-Ser(Bzl)-D-Phe(4-Cl)-Arg-Trp-Ala-NH2] (H-[Ahp]S(Bn)[dPhe(4-Cl)]RWA-NH2), the inhibition at 1 µM was 60% in assay [2], 100% in [6], 93% in assay [7] and 79% in [9]. Besides, the entries for the “Efficacy/Intrinsic Activity” value in assay [3] and in [5] (setting [13]) were “None” and 0.67, respectively. In assay [10], the “24 hour decrease in food intake” value came to 4%. The compound also yielded an EC50 in assay [5] of 55 nM. Moreover, the “decrease in body weight” value in [11] was determined as 2%. For the same compound, the “decrease in food intake” value in assay [11] came to 14%. In assay [8], the “intrinsic activity at MC4-R” value is reported as “less than 0.1”. In addition, the “functional status at MC4-R in cAMP assay” value in [8] is “functionally inactive”. Also, in assay [12], the “Penile Erection IV” value was “No”. The penile erection response entry in [12] is listed as “no penile erection response”.

For the origin of these results see patent US20090081197A1 (Palatin Technologies, Inc., priority 2007, published 2009).
